Four compounds from patent publication US7993687B2, “Compositions and methods for management of diabetes” (priority 2006, dated 2011) can be followed below.

Entries after “also recorded” stand apart in the source; their conditions may differ.

Assay type in all cases: cell-based, rat
Assay [1] concerns p42/44 MAPK (Thr202/Tyr204). Description: Western blot of MAPK phosphorylation in H4IIE cells. Particulars: for phosphorylation of MAPK (FIG. 9): 6 minutes, insulin 250 nM, 2 μL of BWE, D-CI or MI solution. The method, then:
Tissue culture media, antibiotics, fetal bovine serum (FBS) and Nunc tissue culture plates were purchased from Invitrogen Canada Inc. (Burlington, Ontario, Canada, L7P 1A1). Insulin (Sigma-Aldrich Canada Ltd., Oakville, Ontario, Canada, L6H 6J8) was dissolved in water and added directly to cells at a concentration of 250 nM unless otherwise indicated. The BWE was prepared and analyzed as described in Example 1. Two μL of the BWE were added directly to cells unless otherwise indicated. […] Myo-inositol (Sigma-Aldrich Canada Ltd.) and D-chiro-inositol (Industrial Research Ltd., Wellington, New Zealand) were dissolved in water at an equal concentration to the amounts present in the BWE (Table 3) and 2 μL of each solution (0.1% v/v final concentration) was added directly to cells.
Rat H4IIE hepatoma cells (American Type Culture Collection, CRL 1548) were cultured following the method disclosed by Yau et al., (1998, Eur. J. Biochem. 253: 91-1). The H4IIE cells were maintained in α-modified Eagle's media containing 10% FBS, 2 mM glutamine, 25 μg·mL^−1 streptomycin and 25 units·mL^−1 penicillin. Cells were plated and grown to 70% confluence. All cells were placed into serum-free medium for 72 h before addition of stimulating agents to ensure entry into a quiescent state.
Cultures of quiescent H4IIE cells or quiescent FAO cells were placed into 12-well culture dishes containing 2 mL serum-free medium, and then stimulated by direct addition of the inhibitors listed in Table 1 (volumes of additions were 10 μL or less) without replacing the medium. […] The cells in 12-well culture dishes were incubated with stimulating agents for 6 minutes and rinsed with phosphate buffered saline (PBS; 0.9% NaCl, 0.1 M Na3PO4, pH 7.1).
(§1) Cellular protein extracts were prepared by addition of 200 μL 2×SDS/gel loading buffer (0.125 M Tris pH 6.8, 2% SDS, 10% glycerol) to H4IIE cells in 12-well culture dishes. The samples were briefly sonicated, and protein content measured using the BCA protein assay kit. Aliquots containing equal amounts of protein were mixed with bromophenol blue (0.5% (w/v) final concentration) and 2-mercaptoethanol (5% (v/v) final concentration), heated at 95° C. and loaded onto 7.5% or 10% polyacrylamide gels. […] Primary antibodies (diluted 1:1000 in 3% (w/v) BSA) were incubated with the membrane for 60 min at 22° C. Membranes were subsequently washed four times and incubated for an additional 60 min at 1 8-22° C. in 1% (w/v) BSA-TBST with diluted HRP-coupled secondary antibody (1:10 000). HRP was detected using the ECL chemiluminescent system after the membranes had been washed four times.
Quantification of data obtained on film (Kodak X-omat) was accomplished with a GS800 imaging densitometer (Bio-Rad Laboratories) under nonsaturating conditions with local background subtraction. Although multiple exposures were acquired to ensure the absence of film saturation, the experimental figures typically show longer exposures selected specifically for visual presentation and not necessarily used for data analysis. Graphical data are presented as means±SE for a minimum of three replicate samples. […]
(In general: A western blot detects proteins with antibodies after separation by electrophoresis.)

Assay [2] has as its system mitogen-activated protein kinase (MAPK). Description: Western blot of MAPK phosphorylation in FAO hepatoma cells. The method, then: FAO cells are related to H4IIE since both cell lines were derived from Reuber H35 cells (Richardson et al., 1969, J. Cell Biol. 40: 236-247). […] FAO hepatoma cells were propagated under the same culture conditions used for H4IIE cells. Quiescent FAO cells were obtained by placing the cells into serum-free medium for 3 days.
Cultures of quiescent H4IIE cells or quiescent FAO cells were placed into 12-well culture dishes containing 2 mL serum-free medium, and then stimulated by direct addition of the inhibitors listed in Table 1 (volumes of additions were 10 μL or less) without replacing the medium. Inhibitors were added 10 minutes before the stimulating agents except for pertussis toxin which was added 4 hours prior. The cells in 12-well culture dishes were incubated with stimulating agents for 6 minutes and rinsed with phosphate buffered saline (PBS; 0.9% NaCl, 0.1 M Na3PO4, pH 7.1).
as §1
(§2) Quantification of data obtained on film (Kodak X-omat) was accomplished with a GS800 imaging densitometer (Bio-Rad Laboratories) under nonsaturating conditions with local background subtraction. […]

Assay [3] deals with Insulin receptor (Tyr1146). Description: Western blot of insulin receptor phosphorylation in H4IIE cells. The note with it: 6 minutes. The method, then:
(§3) Tissue culture media, antibiotics, fetal bovine serum (FBS) and Nunc tissue culture plates were purchased from Invitrogen Canada Inc. (Burlington, Ontario, Canada, L7P 1A1). Insulin (Sigma-Aldrich Canada Ltd., Oakville, Ontario, Canada, L6H 6J8) was dissolved in water and added directly to cells at a concentration of 250 nM unless otherwise indicated. The BWE was prepared and analyzed as described in Example 1. Two μL of the BWE were added directly to cells unless otherwise indicated. This amount was chosen on the basis of equivalence to insulin. Myo-inositol (Sigma-Aldrich Canada Ltd.) and D-chiro-inositol (Industrial Research Ltd., Wellington, New Zealand) were dissolved in water at an equal concentration to the amounts present in the BWE (Table 3) and 2 μL of each solution (0.1% v/v final concentration) was added directly to cells.
(§4) Rat H4IIE hepatoma cells (American Type Culture Collection, CRL 1548) were cultured following the method disclosed by Yau et al., (1998, Eur. J. Biochem. 253: 91-1). The H4IIE cells were maintained in α-modified Eagle's media containing 10% FBS, 2 mM glutamine, 25 μg·mL^−1 streptomycin and 25 units·mL^−1 penicillin. Cells were plated and grown to 70% confluence. All cells were placed into serum-free medium for 72 h before addition of stimulating agents to ensure entry into a quiescent state. […]
(§5) Cellular protein extracts were prepared by addition of 200 μL 2×SDS/gel loading buffer (0.125 M Tris pH 6.8, 2% SDS, 10% glycerol) to H4IIE cells in 12-well culture dishes. The samples were briefly sonicated, and protein content measured using the BCA protein assay kit. […] HRP was detected using the ECL chemiluminescent system after the membranes had been washed four times.
as §2

In assay [4] the test system is Src (Tyr527). Description: Western blot of Src phosphorylation in H4IIE cells. The note with it: 6 minutes. The method, then: as §3, §4, §5, §2
Assay [5] concerns STAT3 (Tyr705). Description: Western blot of STAT3 phosphorylation in H4IIE cells. The note with it: 6 minutes. On the procedure:
as §3, §4, §5, §2

[6] abbreviates: insulin-stimulated, 6 min, 15-min preincubation with the inhibitor (None = insulin alone), one experiment.

Take `O[C@H]1[C@H](O)[C@@H](O)[C@H](O)[C@@H](O)[C@H]1O` [MI, myo-inositol]: the “phosphorylation of MAPK (FIG. 9)” value in assay [1] is “neither D-CI nor MI increased phosphorylation”. Further, in assay [2], the “phosphorylation of MAPK in FAO cells (FIG. 10)” value (from here on “phosphorylation … (FIG. 10)”) is given as “did not”. Further, in assay [3], the “phosphorylation of InsR” value is on record as “do not provide comparable stimulation”. In assay [4], the “phosphorylation of Src” value is “do not provide comparable stimulation”. In addition, in assay [5], the “phosphorylation of STAT3” value was “do not provide comparable stimulation”.

Turning to `OC1C(O)C(O)C(O)C(O)C1O` [D-CI, D-chiro-inositol], the “phosphorylation of MAPK (FIG. 9)” value in assay [1] is reported as “neither D-CI nor MI increased phosphorylation”. Besides, the “phosphorylation … (FIG. 10)” value in assay [2] is reported as “did not”. Also, in assay [3], the “phosphorylation of InsR” value is on record as “do not provide comparable stimulation”. For the same compound, in assay [4], the “phosphorylation of Src” value was “do not provide comparable stimulation”. In addition, in assay [5], the “phosphorylation of STAT3” value is reported as “do not provide comparable stimulation”.

Turning to “insulin: Insulin (Sigma-Aldrich) dissolved in water, positive comparator”, in assay [1], the “phosphorylation of MAPK (FIG. 9)” value was “increased the phosphorylation of MAPK”. In assay [1] (insulin treatment, 6 min, 15-min preincubation with PKA/PKC inhibitor (None = insulin alone), one experiment), the “phosphorylation of MAPK, stimulation (fold) relative to the control (Table 6)” value is reported as 3.53 fold. For the same compound, the “p42/44 P-MAPK (Thr202/Tyr204) phosphorylation, stimulation (fold) relative to the control” value in assay [1] (setting [6]) is reported as 13.3 fold. Moreover, the “phosphorylation … (FIG. 10)” value in assay [2] is recorded as “stimulated MAPK phosphorylation”. In addition, in assay [3], the “phosphorylation of InsR” value is “phosphorylated in response to insulin; also recorded: stimulated by insulin only”. Moreover, in assay [4], the “phosphorylation of Src” value is “phosphorylated in response to insulin”. Further, in assay [5], the “phosphorylation of STAT3” value is given as “phosphorylated in response to insulin”.

Take `COc1cccc(-c2cc(=O)c3ccccc3o2)c1N` [PD98059]: the “p42/44 P-MAPK (Thr202/Tyr204) phosphorylation, stimulation (fold) relative to the control” value is 1.00 fold in assay [1] (BWE-stimulated, 6 min, 15-min preincubation with the inhibitor (None = BWE alone), one experiment) and 1 fold in assay [1] (setting [6]). Further, the “effect of the inhibitor on insulin- and BWE-stimulated phosphorylation of MAPK” value in assay [1] (preincubation with inhibitor, then insulin or BWE for 6 minutes) is reported as “inhibited”.
